Results from patent US8603986B2, “Compounds and methods for modulating cadherin-mediated processes” (McGill University, priority 2005, dated 2013).
Marks after values point to notes of the source that are not given here.

Key:
[1] = molecular target: T1, VE-cadherin/Fc chimeric protein (Homo sapiens, UniProt P33151); test: Cadherin specificity: phage ELISA on VE-cadherin/Fc; format: binding; design: key: +: Phage bound to the chimeric protein; −: No phage bound to the chimeric protein
T1 construct: purchased R&D Systems, Minneapolis, Minn
Experimental: (§1) The binding of each clone to the cadherin/Fc chimeric proteins was confirmed by ELISA. Wells of ProBind microtiter plates (Falcon) were coated with either N-cadherin/Fc or E-cadherin/Fc chimeric protein (100 ng/well) or human IgG1 (which contains the Fc fragment) (100 ng/well). After blocking the nonspecific sites with TBS containing 3% BSA and 1.2 mM CaCl2 for 1 h at 37° C., phage clones (10^9 pfu) diluted in TBST containing 3% BSA and 1.2 mM CaCl2 (100 μl/well). Non-coated wells were also used to exclude any phage that bound to the plastic surface. After 1 h incubation at room temperature, wells were washed 3 times with TBST containing 3% BSA and 1.2 mM CaCl2. M13 phage without any insert were used to control the non-specific binding of the phage itself to the target. Monoclonal anti-M13 antibody conjugated to horseradish peroxidase (Amersham Biosciences, Piscataway, N.J.) was diluted in TBST containing 3% BSA and 1.2 mM CaCl2 (1:2,000) and added to each well (100 μl/well). After 1 h incubation at room temperature, wells were washed three times with TBST containing 3% BSA and 1.2 mM CaCl2 and once with TBS containing 1.2 mM CaCl2. Horseradish peroxidase substrate, TMB (Sigma), was added to each well (100 μl/well and after color development the reaction was stopped by addition of 100 μl 0.5 M sulphuric acid to each well. The intensity of the color was measured at 450 nm.
(§2) The phage clones shown to bind to the N-cadherin/Fc chimeric protein by ELISA were also evaluated for their ability to bind to E-cadherin/Fc and VE-cadherin/Fc chimeric proteins. The phage clones shown to bind to the E-cadherin/Fc chimeric protein by ELISA were also evaluated for their ability to bind to N-cadherin/Fc and VE-cadherin/Fc chimeric proteins. The same ELISA protocol described in the previous section was used to perform this evaluation with the exception that the wells were coated with either 100 ng N-cadherin/Fc, E-cadherin/Fc or VE-cadherin/Fc chimeric protein (R&D Systems, Minneapolis, Minn.).

[2] = molecular target: T2, N-cadherin/Fc chimeric protein (Homo sapiens, UniProt P19022); test: Cadherin/Fc binding assay: phage ELISA on N-cadherin/Fc; design: key to ELISA Phage Binding to N-Cadherin/Fc Chimeric Protein 1.2 mM calcium / ELISA Phage Binding to N-Cadherin/Fc Chimeric Protein 2 mM EDTA / ELISA Phage Binding to Cadherin/Fc Chimeric Proteins N−: +: Phage bound to the chimeric protein; −: No phage bound to the chimeric protein; settings: for ELISA Phage Binding to N-Cadherin/Fc Chimeric Protein 1.2 mM calcium / ELISA Phage Binding to N-Cadherin/Fc Chimeric Protein 2 mM EDTA: Table 4, Ph.D.-12 library clones
T2 construct: extracellular domain of human N-cadherin (Asp160-Ala724); purchased R&D Systems, Minneapolis, Minn
T2 sequence (P19022 160-724): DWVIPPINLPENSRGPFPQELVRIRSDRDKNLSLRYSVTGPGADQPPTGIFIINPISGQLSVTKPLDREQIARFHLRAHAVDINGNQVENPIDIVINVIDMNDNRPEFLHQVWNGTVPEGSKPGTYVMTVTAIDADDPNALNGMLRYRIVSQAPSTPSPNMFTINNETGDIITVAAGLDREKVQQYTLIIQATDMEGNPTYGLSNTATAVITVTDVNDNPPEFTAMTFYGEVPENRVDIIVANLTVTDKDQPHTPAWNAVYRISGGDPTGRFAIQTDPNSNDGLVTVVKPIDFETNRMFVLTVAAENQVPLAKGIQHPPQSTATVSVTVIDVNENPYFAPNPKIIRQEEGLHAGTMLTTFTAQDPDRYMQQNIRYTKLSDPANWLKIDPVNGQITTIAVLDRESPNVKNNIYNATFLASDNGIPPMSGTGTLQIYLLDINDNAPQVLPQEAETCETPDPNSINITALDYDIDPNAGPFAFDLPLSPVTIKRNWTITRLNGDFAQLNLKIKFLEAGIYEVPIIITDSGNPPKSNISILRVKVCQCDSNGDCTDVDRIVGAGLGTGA
Text: (§3) The peptide libraries, Ph.D.-C7C™ and Ph.D.-12™ (New England BioLabs) were used in this study. These libraries are composed of 2×10^9 randomized 7 amino acid sequences flanked by cysteine residues and linear 12 amino acid sequences, respectively. The amino acid sequences are incorporated into the minor coat protein, pIII, of M13 phage. The N-cadherin/Fc chimeric protein (R&D Systems, Minneapolis, Minn.) consists of the extracellular domain of human N-cadherin (Asp160-Ala724) and the Fc region of human IgG1. The E-cadherin/Fc chimeric protein (R&D Systems, Minneapolis, Minn.) consists of the extracellular domain of human E-cadherin (Asp155-Ile707) and the Fc region of human IgG1.
The binding of each clone to the cadherin/Fc chimeric proteins was confirmed by ELISA. Wells of ProBind microtiter plates (Falcon) were coated with either N-cadherin/Fc or E-cadherin/Fc chimeric protein (100 ng/well) or human IgG1 (which contains the Fc fragment) (100 ng/well). […] Non-coated wells were also used to exclude any phage that bound to the plastic surface. […] M13 phage without any insert were used to control the non-specific binding of the phage itself to the target. […] […] Horseradish peroxidase substrate, TMB (Sigma), was added to each well (100 μl/well and after color development the reaction was stopped by addition of 100 μl 0.5 M sulphuric acid to each well. The intensity of the color was measured at 450 nm.
as §2

[3] = molecular target: T3, E-cadherin/Fc chimeric protein (Homo sapiens, UniProt P12830); test: Cadherin/Fc binding assay: phage ELISA on E-cadherin/Fc; design: key: +: Phage bound to the chimeric protein; −: No phage bound to the chimeric protein
T3 construct: extracellular domain of human E-cadherin (Asp155-Ile707); purchased R&D Systems, Minneapolis, Minn
T3 sequence (P12830 155-707): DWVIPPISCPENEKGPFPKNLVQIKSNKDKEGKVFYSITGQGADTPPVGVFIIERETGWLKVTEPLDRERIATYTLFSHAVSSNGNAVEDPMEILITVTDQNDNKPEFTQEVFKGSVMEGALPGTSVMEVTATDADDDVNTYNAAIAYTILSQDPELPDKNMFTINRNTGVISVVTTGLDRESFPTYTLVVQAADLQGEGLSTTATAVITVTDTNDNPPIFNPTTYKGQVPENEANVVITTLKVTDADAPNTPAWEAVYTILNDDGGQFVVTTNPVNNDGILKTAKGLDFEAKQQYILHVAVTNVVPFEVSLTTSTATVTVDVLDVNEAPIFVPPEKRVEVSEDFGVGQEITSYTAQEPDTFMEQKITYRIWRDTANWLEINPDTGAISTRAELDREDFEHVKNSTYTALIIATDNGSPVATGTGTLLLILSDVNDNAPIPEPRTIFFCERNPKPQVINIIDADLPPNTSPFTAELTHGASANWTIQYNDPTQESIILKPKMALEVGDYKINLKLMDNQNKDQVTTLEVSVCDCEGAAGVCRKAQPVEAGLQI
Text: as §3, §1, §2

[4] = Table 4, Ph.D.-12 library clones
[5] = Table 7, Ph.D.-12 clones selected on E-cadherin/Fc
[6] = Table 6, Ph.D.-C7C clones selected on E-cadherin/Fc

T1 sequence (P33151 with tags, fused parts or gaps limits assumed, species assumed): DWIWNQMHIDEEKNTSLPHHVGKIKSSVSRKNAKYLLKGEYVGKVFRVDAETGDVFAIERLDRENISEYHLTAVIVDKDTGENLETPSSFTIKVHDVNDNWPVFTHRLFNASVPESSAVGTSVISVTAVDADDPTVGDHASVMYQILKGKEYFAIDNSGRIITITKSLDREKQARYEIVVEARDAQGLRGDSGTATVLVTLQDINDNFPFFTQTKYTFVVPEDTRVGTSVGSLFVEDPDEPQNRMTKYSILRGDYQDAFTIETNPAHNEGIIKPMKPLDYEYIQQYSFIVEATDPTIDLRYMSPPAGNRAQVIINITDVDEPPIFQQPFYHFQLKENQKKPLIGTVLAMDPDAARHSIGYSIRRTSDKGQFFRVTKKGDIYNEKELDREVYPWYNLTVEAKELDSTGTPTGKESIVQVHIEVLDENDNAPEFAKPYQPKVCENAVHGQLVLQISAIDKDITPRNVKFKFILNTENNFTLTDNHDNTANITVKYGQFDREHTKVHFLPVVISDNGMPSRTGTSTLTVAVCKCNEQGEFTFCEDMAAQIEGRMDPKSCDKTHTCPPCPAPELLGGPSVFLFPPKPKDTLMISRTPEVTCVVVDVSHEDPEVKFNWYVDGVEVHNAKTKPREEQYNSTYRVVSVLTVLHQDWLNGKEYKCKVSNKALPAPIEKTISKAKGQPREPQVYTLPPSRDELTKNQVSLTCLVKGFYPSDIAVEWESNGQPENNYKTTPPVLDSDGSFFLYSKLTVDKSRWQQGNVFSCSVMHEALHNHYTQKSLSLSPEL

Sequence	ELISA Phage Binding to Cadherin/Fc Chimeric Proteins VE− [1, 4]	ELISA Phage Binding to N-Cadherin/Fc Chimeric Protein 1.2 mM calcium [2]	ELISA Phage Binding to N-Cadherin/Fc Chimeric Protein 2 mM EDTA [2]	ELISA Phage Binding to Cadherin/Fc Chimeric Proteins E− [3, 4]	ELISA Phage Binding to Cadherin/Fc Chimeric Proteins VE− [1, 5]	ELISA Phage Binding to Cadherin/Fc Chimeric Proteins N− [2, 5]	ELISA Phage Binding to Cadherin/Fc Chimeric Proteins E− [3, 5]	further results
AWQVHYSYVASS [Nc 12-a7]	−	+	+	+				
AWTWSLPTLPQS [Ec 12-a5]					−	+	+	
CSKYNSPLC [Ec a4]								ELISA Phage Binding to Cadherin/Fc Chimeric Proteins VE− [1, 6]: −; ELISA Phage Binding to Cadherin/Fc Chimeric Proteins N− [2, 6]: +; ELISA Phage Binding to Cadherin/Fc Chimeric Proteins E− [3, 6]: +
CSRPQSGLC [Ec a23]								ELISA Phage Binding to Cadherin/Fc Chimeric Proteins VE− [1, 6]: −; ELISA Phage Binding to Cadherin/Fc Chimeric Proteins N− [2, 6]: +; ELISA Phage Binding to Cadherin/Fc Chimeric Proteins E− [3, 6]: +
EWDFFWPPTQTP [Ec 12-19]					−	+	+	
EWFWSWPGYSNT [Ec 12-a13]					−	+	+	
EWMIHYDSALTS [Nc 12-a6]	−	+	+	+				
EWQYHWPTLQSR [Ec 12-22]					−	+	+	
EWTFQWNSYPAD [Ec 12-10]					−	+	+	
EWTWVFPTTHTS [Ec 12-07]					−	+	+	
EWTYTFPTAHSI [Ec 12-a18]					−	+	+	
GWTVFYPDNLRP [Ec 12-18]					−	+	+	
HWYITTGPVREK [Nc 12-01]	−	+*	+	−**				
KWELTYFANSFP [Nc 12-a3]	−	+	+	−				
NWFIDFPVYPPL [Nc 12-a1]	−	+	+	−				
QWEIRYPWPSMG [Ec 12-a1]					−	+	+	
QWQLHWPASKQA [Ec 12-11]					−	+	+	
QWTITYPKPPAL [Ec 12-13]					−	+	+	
SWELYYPLRANL [Ec 12-a2]					−	+	+	
SWLAVWPATGAS [Nc 12-a10]	−	+	+	+				
SWTFYWPDAQLG [Ec 12-06]					−	+	+	
SWTLYTPSGQSK [Nc 12-04]	−	+	−	−				
